Read-outs that look alike come from different tables or passages of the source.
Key:
Assay type in all cases: cell-based
LS411N = test: Cell viability (CellTiter-Glo) cytotoxicity assay, INBRX-109 x onvansertib matrix, 48 h; details: for EC50: Homo sapiens, LS-411N
Experimental: (§1) Monolayer cultures of each cell line were harvested for compound screening as detailed below.
(§2) Onvansertib: A 10 mg stock of onvansertib was purchased from Selleck Chemicals and was resuspended to 10 mM in DMSO. This was then aliquoted and stored at −80° C. Aliquots were thawed immediately prior to dilution and use in the assay. A 500× master plate of serial dilutions (6-point 5-fold dilutions in 100% DMSO starting at 500 μM, plus a DMSO only control) was prepared and mixed gently with a pipette. To generate a 5× working dilution plate of onvansertib, a 1:100 dilution was performed from the 500× plate into complete media (EMEM).
(§3) Also on day 2, test and control articles were added.
(§4) On day 4, viability measurements were taken. […] Data was graphed in GraphPad Prism 9.

HT-29 = test: as above; details: for Max Cytotox at 200 nM: HT-29; for EC50: Homo sapiens, HT-29, HT-29
Experimental: as §1, §2, §3, §4

SW1463 = test: as above; details: for EC50: Homo sapiens, SW1463, SW1463; for Max Cytotox at 200 nM: SW1463
Experimental: as §1, §2, §3, §4

SW837 = test: as above; details: for EC50: Homo sapiens, SW837, SW837; for Max Cytotox at 200 nM: SW837
Experimental: as §1, §2, §3, §4

LS174T = test: as above; details: for EC50: Homo sapiens
Experimental: as §1, §2, §3, §4

SW620 = test: as above; details: for EC50: Homo sapiens, SW-620, SW620; for Max Cytotox at 200 nM: SW620
Experimental: as §1, §2, §3, §4

Panc 10.05 = test: Cytotoxicity assay, pancreatic cell line panel, onvansertib +/- 1 nM INBRX-109; details: for EC50: Homo sapiens, Panc1005, Panc 10.05; for Max Cytotox at 600 nM: Panc 10.05
Experimental: as §1, §3, §4
(§5) The results for a panel of colorectal cancer cell lines are shown in Table 3 and FIGS. 4-6, and the results for a panel of pancreatic cell lines are shown in Table 4 and FIGS. 7 and 8.

Capan-1 = test: as above; details: for Max Cytotox at 600 nM: Capan-1; for EC50: Homo sapiens, CAPAN-1, Capan-1
Experimental: as §1, §3, §4, §5

PSN-1 = test: as above; details: for EC50: Homo sapiens, PSN1, PSN-1; for Max Cytotox at 600 nM: PSN-1
Experimental: as §1, §3, §4, §5

BxPC-3 = test: as above; details: for Max Cytotox at 600 nM: BxPC-3; for EC50: Homo sapiens, BXPC-3, BxPC-3
Experimental: as §1, §3, §4, §5

HuP-T4 = test: as above; details: for EC50: Homo sapiens, HuP-T4, HuP-T4; for Max Cytotox at 600 nM: HuP-T4
Experimental: as §1, §3, §4, §5

HPAF-II = test: as above; details: for EC50: Homo sapiens
Experimental: as §1, §3, §4, §5

PANC-1 = test: as above; details: for EC50: Homo sapiens, PANC-1, PANC-1; for Max Cytotox at 600 nM: PANC-1
Experimental: as §1, §3, §4, §5

MIA PaCa-2 = test: as above; details: for EC50: Homo sapiens, MIA PaCa-2, MIA PaCa-2; for Max Cytotox at 600 nM: MIA PaCa-2
Experimental: as §1, §3, §4, §5

SU.86.86 = test: as above; details: for EC50: Homo sapiens, SU.86.86, SU.86.86; for Max Cytotox at 600 nM: SU.86.86
Experimental: as §1, §3, §4, §5

Panc 03.27 = test: as above; details: for EC50: Homo sapiens, PANC-03-27, Panc 03.27; for Max Cytotox at 600 nM: Panc 03.27
Experimental: as §1, §3, §4, §5

KP4 = test: as above; details: for EC50: Homo sapiens, KP-4, KP4; for Max Cytotox at 600 nM: KP4
Experimental: as §1, §3, §4, §5

Panc 05.04 = test: as above; details: for EC50: Panc 05.04, Panc 05.04; for Max Cytotox at 600 nM: Panc 05.04
Experimental: as §1, §3, §4, §5

CFPAC-1 = test: as above; details: for Max Cytotox at 600 nM: CFPAC-1; for EC50: Homo sapiens, CFPAC-1, CFPAC-1
Experimental: as §1, §3, §4, §5

AsPC-1 = test: as above; details: for Max Cytotox at 600 nM: AsPC-1; for EC50: Homo sapiens, ASPC1, AsPC-1
Experimental: as §1, §3, §4, §5

SW-1990 = test: as above; details: for EC50: Homo sapiens, SW1990, SW-1990; for Max Cytotox at 600 nM: SW-1990
Experimental: as §1, §3, §4, §5

PL45 = test: as above; details: for EC50: PL45, PL45; for Max Cytotox at 600 nM: PL45
Experimental: as §1, §3, §4, §5

Capan-2 = test: as above; details: for Max Cytotox at 600 nM: Capan-2; for EC50: Homo sapiens, Capan-2, Capan-2
Experimental: as §1, §3, §4, §5

[1] = system: cancer cell lines HT-29, LS174T, SW620, SW837, SW1463, and LS411N; test: Cytotoxicity screen INBRX-109 + onvansertib, summary over the cell lines; details: combination of INBRX-109 and onvansertib
Experimental: as §1, §2, §3, §4

Compound: CN1CCN(c2ccc(OC(F)(F)F)c(Nc3ncc4c(n3)-c3c(c(C(N)=O)nn3CCO)CC4)c2)CC1 [Onvansertib]
- EC50 (LS411N; onvansertib + 1 nM INBRX-109, read-out: EC50): ~0.0103 µM
- EC50 (LS411N; onvansertib only, read-out: EC50): ~4150 µM
- Max Cytotox at 200 nM (LS411N; onvansertib + 1 nM INBRX-109): 84.45%
- Max Cytotox at 200 nM (LS411N; onvansertib only): 12.35%
- Max Cytotox at 200 nM (HT-29; onvansertib + 1 nM INBRX-109): 94.63%
- Max Cytotox at 200 nM (HT-29; onvansertib only): 5.54%
- EC50 (HT-29; onvansertib + 1 nM INBRX-109): 0.0214 µM
- EC50 (HT-29; onvansertib only): ~0.0023 µM
- EC50 (SW1463; onvansertib + 1 nM INBRX-109): ~0.0382 µM
- EC50 (SW1463; onvansertib only): 0.124 µM
- Max Cytotox at 200 nM (SW1463; onvansertib + 1 nM INBRX-109): 74.39%
- Max Cytotox at 200 nM (SW1463; onvansertib only): 25.79%
- EC50 (SW837; onvansertib + 1 nM INBRX-109): ~0.0432 µM
- EC50 (SW837; onvansertib only): 27.2 µM
- Max Cytotox at 200 nM (SW837; onvansertib + 1 nM INBRX-109): 80.64%
- Max Cytotox at 200 nM (SW837; onvansertib only): 27.17%
- EC50 (LS174T; onvansertib + 1 nM INBRX-109): ~0.0547 µM
- EC50 (LS174T; onvansertib only): ~0.197 µM
- Max Cytotox at 200 nM (LS174T; onvansertib + 1 nM INBRX-109): 79.32%
- Max Cytotox at 200 nM (LS174T; onvansertib only): 16.93%
- EC50 (SW620; onvansertib + 1 nM INBRX-109): 0.0305 µM
- EC50 (SW620; onvansertib only): 0.0313 µM
- Max Cytotox at 200 nM (SW620; onvansertib + 1 nM INBRX-109): 87.53%
- Max Cytotox at 200 nM (SW620; onvansertib only): 51.37%
- EC50 (Panc 10.05; onvansertib + 1 nM INBRX-109): 0.0817 µM
- EC50 (Panc 10.05; onvansertib only): 0.0819 µM
- Max Cytotox at 600 nM (Panc 10.05; onvansertib + 1 nM INBRX-109): 83.3%
- Max Cytotox at 600 nM (Panc 10.05; onvansertib only): 47.2%
- Max Cytotox at 600 nM (Capan-1; onvansertib + 1 nM INBRX-109): 94.3%
- Max Cytotox at 600 nM (Capan-1; onvansertib only): 27.8%
- EC50 (Capan-1; onvansertib + 1 nM INBRX-109): 0.079 µM
- EC50 (Capan-1; onvansertib only): 0.186 µM
- EC50 (PSN-1; onvansertib + 1 nM INBRX-109): 0.063 µM
- EC50 (PSN-1; onvansertib only): 0.0853 µM
- Max Cytotox at 600 nM (PSN-1; onvansertib + 1 nM INBRX-109): 98.0%
- Max Cytotox at 600 nM (PSN-1; onvansertib only): 83.2%
- Max Cytotox at 600 nM (BxPC-3; onvansertib + 1 nM INBRX-109): 91.8%
- Max Cytotox at 600 nM (BxPC-3; onvansertib only): 70.1%
- EC50 (BxPC-3; onvansertib + 1 nM INBRX-109): 0.119 µM
- EC50 (BxPC-3; onvansertib only): 0.139 µM
- EC50 (HuP-T4; onvansertib + 1 nM INBRX-109): 0.0351 µM
- EC50 (HuP-T4; onvansertib only): 0.138 µM
- Max Cytotox at 600 nM (HuP-T4; onvansertib + 1 nM INBRX-109): 85.3%
- Max Cytotox at 600 nM (HuP-T4; onvansertib only): 33.7%
- EC50 (HPAF-II; onvansertib + 1 nM INBRX-109): 0.0519 µM
- EC50 (HPAF-II; onvansertib only): 0.0633 µM
- Max Cytotox at 600 nM (HPAF-II; onvansertib + 1 nM INBRX-109): 68.2%
- Max Cytotox at 600 nM (HPAF-II; onvansertib only): 27.2%
- EC50 (PANC-1; onvansertib + 1 nM INBRX-109): 0.121 µM
- EC50 (PANC-1; onvansertib only): 0.152 µM
- Max Cytotox at 600 nM (PANC-1; onvansertib + 1 nM INBRX-109): 87.2%
- Max Cytotox at 600 nM (PANC-1; onvansertib only): 36.2%
- EC50 (MIA PaCa-2; onvansertib + 1 nM INBRX-109): 0.0813 µM
- EC50 (MIA PaCa-2; onvansertib only): 0.179 µM
- Max Cytotox at 600 nM (MIA PaCa-2; onvansertib + 1 nM INBRX-109): 96.4%
- Max Cytotox at 600 nM (MIA PaCa-2; onvansertib only): 67.0%
- EC50 (SU.86.86; onvansertib + 1 nM INBRX-109): 0.0914 µM
- EC50 (SU.86.86; onvansertib only): 0.629 µM
- Max Cytotox at 600 nM (SU.86.86; onvansertib + 1 nM INBRX-109): 98.9%
- Max Cytotox at 600 nM (SU.86.86; onvansertib only): 30.5%
- EC50 (Panc 03.27; onvansertib + 1 nM INBRX-109): 0.09 µM
- EC50 (Panc 03.27; onvansertib only): 0.121 µM
- Max Cytotox at 600 nM (Panc 03.27; onvansertib + 1 nM INBRX-109): 87.5%
- Max Cytotox at 600 nM (Panc 03.27; onvansertib only): 36.7%
- EC50 (KP4; onvansertib + 1 nM INBRX-109): 0.0824 µM
- EC50 (KP4; onvansertib only): 0.105 µM
- Max Cytotox at 600 nM (KP4; onvansertib + 1 nM INBRX-109): 97.8%
- Max Cytotox at 600 nM (KP4; onvansertib only): 74.7%
- EC50 (Panc 05.04; onvansertib + 1 nM INBRX-109): 0.0611 µM
- EC50 (Panc 05.04; onvansertib only): 0.205 µM
- Max Cytotox at 600 nM (Panc 05.04; onvansertib + 1 nM INBRX-109): 97.4%
- Max Cytotox at 600 nM (Panc 05.04; onvansertib only): 44.4%
- Max Cytotox at 600 nM (CFPAC-1; onvansertib + 1 nM INBRX-109): 86.4%
- Max Cytotox at 600 nM (CFPAC-1; onvansertib only): 45.3%
- EC50 (CFPAC-1; onvansertib + 1 nM INBRX-109): 0.154 µM
- EC50 (CFPAC-1; onvansertib only): 0.135 µM
- Max Cytotox at 600 nM (AsPC-1; onvansertib + 1 nM INBRX-109): 60.0%
- Max Cytotox at 600 nM (AsPC-1; onvansertib only): 19.9%
- EC50 (AsPC-1; onvansertib + 1 nM INBRX-109): 0.23 µM
- EC50 (AsPC-1; onvansertib only): 0.444 µM
- EC50 (SW-1990; onvansertib + 1 nM INBRX-109): 0.598 µM
- EC50 (SW-1990; onvansertib only): 0.7 µM
- Max Cytotox at 600 nM (SW-1990; onvansertib + 1 nM INBRX-109): 68.7%
- Max Cytotox at 600 nM (SW-1990; onvansertib only): 13.4%
- EC50 (PL45; onvansertib + 1 nM INBRX-109): 0.0681 µM
- EC50 (PL45; onvansertib only): 0.0836 µM
- Max Cytotox at 600 nM (PL45; onvansertib + 1 nM INBRX-109): 82.2%
- Max Cytotox at 600 nM (PL45; onvansertib only): 56.5%
- Max Cytotox at 600 nM (Capan-2; onvansertib + 1 nM INBRX-109): 46.2%
- Max Cytotox at 600 nM (Capan-2; onvansertib only): 3.9%
- EC50 (Capan-2; onvansertib + 1 nM INBRX-109): 0.135 µM
- EC50 (Capan-2; onvansertib only): 0.15 µM
- cell killing by the combination [1]: increased cell killing on every cancer cell line tested
